Assay results published in patent US10570179B2, “Substituted urea depsipeptide analogs as activators of the CLPP endopeptidase” (priority 2016, dated 2020).
Numbered stars: 1 amine (or outer) side, 2 acyl side, 3 side chain; on linkers, the order of the positions; unused ones are H or OH. Bridge positions count the residues as written; N and C are the ends. Square brackets hold non-standard residues; d marks the D form. Peptide text beside a SMILES is read from it. * marks the point of attachment. Piperazine(2S-CO,4-Me) = CN1CCN[C@H](C(=O)O)C1; Phe(3,5-Me2) = Cc1cc(C)cc(C[C@H](N)C(=O)O)c1; Phe(3-Me) = Cc1cccc(C[C@H](N)C(=O)O)c1; NH(4-Cl-2-F-phenyl) = Fc1cc(Cl)ccc1N*; Pro(4R-Me) = C[C@H]1CN[C@H](C(=O)O)C1; Hyp = O=C(O)[C@@H]1C[C@@H](O)CN1; NH(4-Me-phenyl) = Cc1ccc(N*)cc1; aThr = C[C@H](O)[C@H](N)C(=O)O; Pip = O=C(O)[C@@H]1CCCCN1; CO = O=C([*:1])[*:2]

What was measured:
Plasma stability assay = assay type: in vitro ADME, mouse
Procedure: The plasma stability property of early drug discovery compounds can influence the in vivo efficacy of the test compounds/drugs. Human and/or mouse plasma degradation is determined using multiple time points to monitor the rate of disappearance of the parent compound during incubation.
Sample preparation for plasma stability was modified from Di et al. (2005) Int. J. Pharm. 297(1-2): 110-119. A set of incubation times of 0, 3, 24, and 48 hour were used. DMSO stock solutions of test compounds were prepared at 10 mM concentration. 1.8 μL of each test compound was each added directly to 1.8 mL of human/mouse plasma to get the final concentration of 10 μM. This compound/matrix was mixed and 70 μL was transferred to 8 time points plates (each in triplicate wells). For the Time 0 plate, 210 μL of cold acetonitrile with internal standard (4 μg/mL warfarin) was added to each well and no incubation needed. For other seven time points' plate, the plate was incubated at 37° C. for required time, followed by quenching of the reaction by adding 210 μL of cold acetonitrile with internal standard (4 μg/ml warfarin) to each well. All of the plates were sealed and mixed well at 600 rpm for 10 min and were centrifuged at 4000 rpm for 20 min. The supernatants (120 μL) were transferred to analytical plates for analysis by LCMS. Conditions for Waters ACQUITY-UPLC-MS-UV system was described separately. The plasma stability was evaluated via the half-life from least-squares fit of the multiple time points based on first-order kinetics.

[1] = Microsomal metabolic stability; assay type: in vitro ADME, human
Procedure: Compounds were initially prepared by dissolving them into DMSO at a final concentration of 10 mM. NADPH regenerating solutions A and B and mouse liver microsomes (CD-1) were obtained from BD Gentest (Woburn, Mass.). Ninety-six well deep well plates were obtained from MidWest Scientific Inc (Valley Park, Mo.).
Sample preparation for microsomal stability was modified from methods of Di, L., et al., Int J Pharm. 2005 Jun. 13; 297(1-2):110-9. A set of incubation times of 0, 15, 30, 60, 120, and 240 minutes were used. Mouse liver microsomal solutions were prepared by adding 58 μL of concentrated human or mouse liver microsomes (20 mg/mL protein concentration) to 1.756 mL of 0.1 M potassium phosphate buffer (pH 7.4) and 5 μL of 0.5 M EDTA to make a 0.6381 mg/mL (protein) microsomal solution. NADPH regenerating agent contained 113 μL of NADPH A, 23 μL of NADPH B, and 315 μL of 0.1 M potassium phosphate buffer (pH 7.4). The diluted test compound solutions (2 μL) were each added directly to a 1.79 mL of liver microsomal solution. This solution was mixed and 90 μL was transferred to 6 time points plates (each in triplicate wells). For the time 0 plate, 225 μL of cold acetonitrile with internal standard ([…] warfarin) was added to each well, followed by addition of NADPH regenerating agent (22.5 μL) and no incubation. For other five time points' plate, NADPH regenerating agent (22.5 μL) was added to each well to initiate the reaction. The plates were incubated at 37° C. for the required time, followed by quenching of the reaction by adding 225 μL of cold acetonitrile with internal standard (4 μg/ml warfarin). All of the plates were sealed and mixed well at 600 rpm for 10 minutes followed by centrifugation at 4000 rpm for 20 minutes. The supernatants (120 μL) were transferred to analytical plates for analysis by LCMS. LCMS conditions were described in the materials and instrumentation section above. The metabolic stability is evaluated via the half-life from least-squares fit of the multiple time points based on first-order kinetics.

[2] = Plasma protein binding, rapid equilibrium dialysis; assay type: in vitro ADME, human; conditions: 10 μM
Procedure: This assay determines plasma protein binding of a drug/compound and free drug concentration in plasma using rapid equilibrium dialysis, which allow the aqueous component of plasma containing the free drug/compound through a dialysis membrane (MWCO˜8,000).
Solutions were prepared at 10 mM in DMSO. Dulbecco's phosphate buffered saline (DPBS; pH 7.4) was obtained from Invitrogen (Carlsbad, Calif.). Single-Use RED (rapid equilibrium dialysis) device was obtained from Thermo scientific (Rockford, Ill.). Human plasma was obtained from Innovative Research INC (Novi, Michigan, Ill).
Sample preparation for plasma protein binding was modified from Waters' method. (Waters et al. (2008) J. Pharm. Sci. 97(10): 4586-95). The Teflon base plate with the RED inserts (MWCO 8 K) were allowed to use without any pre-condition the membrane inserts. Human plasma was thawed and centrifuged at 1000 rpm for 2 min to remove any particulates. Each compound was prepared at 10 μM in human plasma. This was done by adding 1 μL, of drug solution (10 mM in DMSO) to 1000 μL, of human plasma (0.1% DMSO). Spiked plasma solutions (300 μL) were placed into the sample chamber (indicated by the red ring) and 500 μL, of DPBS into the adjacent chamber. The plate was sealed and incubated at 37° C. on an orbital shaker (100 rpm) for 4 hours. After incubation, the seal was removed from the RED plate and the volume of the insert confirmed—little to no volume change occurred. Aliquots (50 μL) were removed from each side of the insert and dispensed into a 96-well deep plate. An equal volume of blank plasma or DPBS was added to the required wells to create analytically identical sample matrices (matrix matching). To each sample 200 μL, of ACN containing 4 μg/mL warfarin IS was added. All of the plates were sealed and mixed well at 600 rpm for 10 min and were centrifuged at 4000 rpm for 20 min. The supernatants (120 μL) were transferred to analytical plates for analysis by LCMS. Conditions for Waters ACQUITY-UPLC-MS-UV system were described separately. The test compound concentrations were quantified in both buffer and plasma chambers via peak areas relative to the internal standard. The percentage of the test compound bound to plasma was calculated on following equations: % Free=(Concentration buffer chamber/concentration plasma chamber)×100% and % Bound=100%-% Free.

[3] = plasma stability half-life, mouse plasma, 37° C.
[4] = microsomal metabolic stability half-life, human liver microsomes
[5] = plasma binding, % Bound, human plasma

## Cc1cccc(C[C@H](NC(=O)Nc2ccc(Cl)cc2F)C(=O)N[C@H]2COC(=O)[C@@H]3C[C@@H](C)CN3C(=O)[C@H](C)NC(=O)[C@@H]3CCCCN3C(=O)[C@@H]3CCCN3C2=O)c1 [Compound 8, (S)-2-(3-(4-CHLORO-2-FLUOROPHENYL)UREIDO)-N-((2R,6S,8AS,14AS,20S,23AS)-2,6-DIMETHYL-5,8,14,19,23-PENTAOXOOCTADECAHYDRO-1H,5H,14H,19H-PYRIDO[2,1-I]DIPYRROLO[2,1-C:2′,1′-L][1]OXA[4,7,10,13]TETRAAZACYCLOHEXADECIN-20-YL)-3-(M-TOLYL)PROPANAMIDE]
Plasma stability assay; mouse, 10 μM
  Mouse: >50 h
[1]; human, pH 7.4
  Human – 0.89 ± 0.13 h
[2]; human, 4 h, pH 7.4
  Human – 98.2 ± 0.2%

## Cc1ccc(NC(=O)N[C@@H](Cc2cccc(C)c2)C(=O)N[C@H]2COC(=O)[C@@H]3CCCN3C(=O)[C@H](C)NC(=O)[C@@H]3CCCCN3C(=O)[C@@H]3C[C@@H](O)CN3C2=O)cc1 [Compound 49, (S)—N-((6S,8AS,14AS,16R,20S,23AS)-16-HYDROXY-6-METHYL-5,8,14,19,23-PENTAOXOOCTADECAHYDRO-1H,5H,14H,19H-PYRIDO[2,1-I]DIPYRROLO[2,1-C:2′,1′-L][1]OXA[4,7,10,13]TETRAAZACYCLOHEXADECIN-20-YL)-3-(M-TOLYL)-2-(3-(P-TOLYL)UREIDO)PROPANAMIDE]
Plasma stability assay; [3]
  Mouse: 22.75 h
[1]; [4]
  Human – 0.81 ± .813 h
[2]; [5]
  Human – 98.7 ± 8.7%

## Cc1cccc(C[C@H](NC(=O)Nc2ccc(Cl)cc2F)C(=O)N[C@H]2COC(=O)[C@@H]3C[C@@H](C)CN3C(=O)[C@H](C)NC(=O)[C@@H]3CN(C)CCN3C(=O)[C@@H]3CCCN3C2=O)c1 [Compound 13, (S)-2-(3-(4-CHLORO-2-FLUOROPHENYL)UREIDO)-3-(M-TOLYL)-N-((6AS,12S,15AS,17R,21S,23AS)-2,17,21-TRIMETHYL-6,11,15,20,23-PENTAOXOOCTADECAHYDRO-2H,6H,11H,15H-PYRAZINO[2,1-I]DIPYRROLO[2,1-C:2′,1′-L][1]OXA[4,7,10,13]TETRAAZACYCLOHEXADECIN-12-YL)PROPANAMIDE] ({NH(4-Cl-2-F-phenyl)-CO}-[Phe(3-Me)]SP[Piperazine(2S-CO,4-Me)]A[Pro(4R-Me)]; ester 2-C)
Plasma stability assay; mouse, 10 μM
  Mouse: 10.74 ± 0.8 h
[1]; human, pH 7.4
  Human – 0.38 ± 0.04 h
[2]; human, 4 h, pH 7.4
  Human – 97.0 ± 0.6%

## Cc1ccc(NC(=O)N[C@@H](Cc2cc(C)cc(C)c2)C(=O)N[C@@H]2C(=O)N3CCC[C@H]3C(=O)N3CCCC[C@H]3C(=O)N[C@@H](C)C(=O)N3C[C@H](C)C[C@H]3C(=O)O[C@H]2C)cc1 [Compound 2, (S)-3-(3,5-DIMETHYLPHENYL)-2-(3-(P-TOLYL)UREIDO)-N-((2R,6S,8AS,14AS,20S,21S,23AS)-2,6,21-TRIMETHYL-5,8,14,19,23-PENTAOXOOCTADECAHYDRO-1H,5H,14H,19H-PYRIDO[2,1-I]DIPYRROLO[2,1-C:2′,1′-L][1]OXA[4,7,10,13]TETRAAZACYCLOHEXADECIN-20-YL)PROPANAMIDE] ({NH(4-Me-phenyl)-CO}-[Phe(3,5-Me2)][aThr]P[Pip]A[Pro(4R-Me)]; ester 2-C)
Plasma stability assay; [3]
  Mouse (hr): >>48 hr
[1]; [4]
  Human – 0.62 h
[2]; [5]
  Human – 99.3%

## Cc1cccc(C[C@H](NC(=O)Nc2ccc(Cl)cc2F)C(=O)N[C@@H]2C(=O)N3C[C@H](O)C[C@H]3C(=O)N3CCN(C)C[C@H]3C(=O)N[C@@H](C)C(=O)N3C[C@H](C)C[C@H]3C(=O)O[C@H]2C)c1 [Compound 31, (S)-2-(3-(4-CHLORO-2-FLUOROPHENYL)UREIDO)-N-((6AS,8R,12S,13S,15AS,17R,21S,23AS)-8-HYDROXY-2,13,17,21-TETRAMETHYL-6,11,15,20,23-PENTAOXOOCTADECAHYDRO-2H,6H,11H,15H-PYRAZINO[2,1-I]DIPYRROLO[2,1-C:2′,1′-L][1]OXA[4,7,10,13]TETRAAZACYCLOHEXADECIN-12-YL)-3-(M-TOLYL)PROPANAMIDE] ({NH(4-Cl-2-F-phenyl)-CO}-[Phe(3-Me)][aThr][Hyp][Piperazine(2S-CO,4-Me)]A[Pro(4R-Me)]; ester 2-C)
Plasma stability assay; mouse, 10 μM
  Mouse: >50 h
[1]; human, pH 7.4
  Human – 3.87 ± .875 h
[2]; human, 4 h, pH 7.4
  Human – 97.9 ± 7.9%
